Source: PMC10408038 (Journal of medicinal chemistry, 2022)

Tests used:
NCI-H522 cells [1] = assay: Cell viability assay; conditions: for Fold Change: ratio of IC50 (HCT-116)/ IC50 (NCI-H522); for fold increase of IC50 in the presence of Liproxstatin-1: NCI-H522, Liproxstatin-1 (0.25 μM); for IC50: cell line not given
NCI-H522 cells [2] = assay: Liproxstatin-1 rescue experiments; assay type: cell-based; conditions: for rescue of cytotoxicity by Liproxstatin-1: compound at 2–3 times the IC50, Liproxstatin-1 0.25 μM
NCI-H522 cells [3] = assay: C11-BODIPY lipid peroxidation assay; assay type: cell-based; conditions: 3 h or 6 h treatment
NCI-H522 cells [4] = assay: In-gel fluorescence labeling competition with probe; assay type: cell-based; conditions: competitor 20 μM
[5] = NMR kinetic study of thiol addition; assay type: physicochemical; conditions: DMSO-d6
NCI-H522 cells [6] = assay: Incubation time50; assay type: cell-based; conditions: RSL3 0.5 μM, 45 2 μM
GPX4 = biological target: T1, GPX4 (Homo sapiens, UniProt P36969); assay: Pulldown with Biotin-TAMRA and western blot analysis, GPX4; assay type: cell-based; conditions: NCI-H522; probe 10 μM; western blot
T1 sequence (P36969 28-197 limits assumed): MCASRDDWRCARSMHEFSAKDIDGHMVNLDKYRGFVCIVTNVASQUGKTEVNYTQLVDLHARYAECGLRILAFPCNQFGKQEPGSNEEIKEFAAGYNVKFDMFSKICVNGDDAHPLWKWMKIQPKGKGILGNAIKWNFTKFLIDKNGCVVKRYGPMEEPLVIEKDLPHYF

GSTO1 = biological target: T2, GSTO1 (Homo sapiens, UniProt P78417); assay: Pulldown with Biotin-TAMRA and western blot analysis, GSTO1; assay type: cell-based; conditions: NCI-H522; probe 10 μM; western blot
T2 sequence (P78417 1-241): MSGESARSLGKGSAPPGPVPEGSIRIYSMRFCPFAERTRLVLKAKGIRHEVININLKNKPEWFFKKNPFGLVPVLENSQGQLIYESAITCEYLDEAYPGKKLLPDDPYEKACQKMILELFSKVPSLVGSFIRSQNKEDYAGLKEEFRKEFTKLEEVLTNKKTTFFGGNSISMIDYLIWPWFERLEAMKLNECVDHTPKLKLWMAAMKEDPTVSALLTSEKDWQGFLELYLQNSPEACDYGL

TXRD1 = biological target: T3, TXRD1 (Homo sapiens, UniProt Q16881); assay: Pulldown with Biotin-TAMRA and western blot analysis, TXRD1; assay type: cell-based; conditions: NCI-H522; western blot
T3 sequence (Q16881 151-649 limits assumed): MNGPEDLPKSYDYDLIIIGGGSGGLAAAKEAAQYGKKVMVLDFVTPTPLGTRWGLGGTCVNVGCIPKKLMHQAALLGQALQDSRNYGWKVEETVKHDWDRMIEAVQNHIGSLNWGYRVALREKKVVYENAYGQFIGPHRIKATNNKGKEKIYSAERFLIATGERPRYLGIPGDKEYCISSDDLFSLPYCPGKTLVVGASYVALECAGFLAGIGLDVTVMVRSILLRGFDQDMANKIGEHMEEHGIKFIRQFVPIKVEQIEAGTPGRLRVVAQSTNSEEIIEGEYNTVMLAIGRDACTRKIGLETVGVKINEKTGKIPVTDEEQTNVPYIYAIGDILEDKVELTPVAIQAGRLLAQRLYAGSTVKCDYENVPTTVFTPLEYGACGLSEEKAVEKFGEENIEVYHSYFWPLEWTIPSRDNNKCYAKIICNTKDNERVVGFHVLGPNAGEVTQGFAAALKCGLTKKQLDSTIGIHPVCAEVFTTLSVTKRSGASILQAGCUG

[7] = in the presence of DABCO, N-Boc-cysteine methyl ester 10 equiv.

2-ethynyl-N-(4-methoxyphenyl)thiazole-5-carboxamide [Compound 8]
Fold Change (NCI-H522 cells [1]): 12.52

2-ethynyl-N-phenylthiazole-5-carboxamide [Compound 9]
Fold Change (NCI-H522 cells [1]): 7.39

C#Cc1nc(C(=O)N2CCN(C(c3ccc(Cl)cc3)c3ccc(Cl)cc3)CC2)cs1 [BCP-T.A, (4-(bis(4-chlorophenyl)methyl)piperazin-1-yl)(2-ethynylthiazol-4-yl)methanone]
rescue of cytotoxicity by Liproxstatin-1 (NCI-H522 cells [2]): rescues cells
C11-Bodipy oxidation (lipid peroxide levels) versus DMSO (NCI-H522 cells [3]): increases lipid peroxides
fold increase of IC50 in the presence of Liproxstatin-1 (NCI-H522 cells [1]): approximately 500 fold

C#CC1=Nc2ccccc2C(C)(C)O1 [Compound 2, 2-ethynyl-4,4-dimethyl-4H-benzo[d][1,3]oxazine, reference compound]
rescue of cytotoxicity by Liproxstatin-1 (NCI-H522 cells [2]): significant rescue
competition with probe (65) labeling (NCI-H522 cells [4]): high competition

C#Cc1nc(C(=O)OCC)cs1 [Compound 22, ethyl 2-ethynylthiazole-4-carboxylate]
half-life (t1/2) of thiol addition ([5]; in the absence of DABCO): 4.43 h
half-life (t1/2) of thiol addition [5, 7]: 0.315 h
cells rescued by Liproxstatin-1 (NCI-H522 cells [2]; (22) 10 μM, Liproxstatin-1 0.25 μM): 100%

Cn1c(I)nc2ccccc21 [Compound 31, 2-iodo-1-methyl-1H-benzo[d]imidazole]
rescue of cytotoxicity by Liproxstatin-1 (NCI-H522 cells [2]): kill NCI-H522 cells at the same rates both in the absence and presence of Liproxstatin-1
C11-Bodipy oxidation (lipid peroxide levels) versus DMSO (NCI-H522 cells [3]): indistinguishable from the corresponding DMSO treatment

C=Cc1nc2ccccc2n1C [Compound 39, 1-methyl-2-vinyl-1H-benzo[d]imidazole]
rescue of cytotoxicity by Liproxstatin-1 (NCI-H522 cells [2]): kill NCI-H522 cells at the same rates both in the absence and presence of Liproxstatin-1
C11-Bodipy oxidation (lipid peroxide levels) versus DMSO (NCI-H522 cells [3]): marginally increase C11-Bodipy oxidation

C=Cc1nc2ccccc2[se]1 [Compound 42, 2-vinylbenzo[d][1,3]selenazole]
C11-Bodipy oxidation (lipid peroxide levels) versus DMSO (NCI-H522 cells [3]): marginally increase C11-Bodipy oxidation

C#Cc1nc2ccccc2s1 [Compound 45, 2-ethynylbenzo[d]thiazole]
half-life (t1/2) of thiol addition ([5]; in the absence of DABCO): > 6 h
half-life (t1/2) of thiol addition [5, 7]: < 0.083 h
incubation time after which cells cannot be rescued by washing off the drug (NCI-H522 cells [6]): 1 to 2 h
competition with probe (65) labeling (NCI-H522 cells [4]): high competition

C#CCNC1CCC(c2csc(C#C)n2)=C1C (stereo not drawn) [Compound 64, 3-(2-ethynylthiazol-4-yl)-2-methyl-N-(prop-2-yn-1-yl)cyclopent-2-en-1-amine]
rescue of cytotoxicity by Liproxstatin-1 (NCI-H522 cells [2]): significant rescue
C11-Bodipy oxidation (lipid peroxide levels) versus DMSO (NCI-H522 cells [3]): increased levels of lipid peroxides

C#CCNC(=O)c1csc(C#C)n1 [Compound 65, 2-ethynyl-N-(prop-2-yn-1-yl)thiazole-4-carboxamide]
rescue of cytotoxicity by Liproxstatin-1 (NCI-H522 cells [2]): significant rescue
C11-Bodipy oxidation (lipid peroxide levels) versus DMSO (NCI-H522 cells [3]): increased levels of lipid peroxides
enrichment of GPX4 in pulldown (GPX4): selectively enriched
enrichment of GSTO1 in pulldown (GSTO1): selectively enriched

C#CCNC(=O)c1csc(C#Cc2ccccc2)n1 [Compound 66, 2-(phenylethynyl)-N-(prop-2-yn-1-yl)thiazole-4-carboxamide]
labeling of TXRD1 in pulldown (TXRD1): has the ability to label this protein

Cc1onc(C(=O)N2CCN(C(c3ccc(Cl)cc3)c3ccc(Cl)cc3)CC2)c1[N+](=O)[O-] [ML-210, (4-(bis(4-chlorophenyl)methyl)piperazin-1-yl)(5-methyl-4-nitroisoxazol-3-yl)methanone, reference compound]
fold increase of IC50 in the presence of Liproxstatin-1 (NCI-H522 cells [1]): about 800 fold

COC(=O)c1ccc([C@H]2c3[nH]c4ccccc4c3CC(C(=O)OC)N2C(=O)CCl)cc1 (stereo partly drawn) [RSL3, reference compound]
incubation time after which cells cannot be rescued by washing off the drug (NCI-H522 cells [6]): 1 to 2 h

CCOc1ccccc1-n1c(C(C)N2CCN(C(=O)COc3ccc(Cl)cc3)CC2)nc2ccccc2c1=O (stereo not drawn) [erastin]
competition with probe (65) labeling (NCI-H522 cells [4]): no competition was observed

(4-ethylpiperazin-1-yl)(2-ethynylthiazol-5-yl)methanone [Compound 75]
IC50 (NCI-H522 cells [1]; scheme 5 analogs): > 1000 nM

(E)-1-(4-(bis(4-chlorophenyl)methyl)piperazin-1-yl)-3-(2-ethynylthiazol-5-yl)prop-2-en-1-one [Compound 78]
IC50 (NCI-H522 cells [1]; scheme 5D): 6 nM

(E)-N-(4-chlorophenyl)-3-(2-ethynylthiazol-5-yl)acrylamide [Compound 16]
Fold Change (NCI-H522 cells [1]): 62.64

N-(4-chlorophenyl)-2-ethynylthiazole-5-carboxamide [Compound 10]
Fold Change (NCI-H522 cells [1]): 29.40
